Experimental data as given in patent publication US7074769B2, “Oligonucleotide inhibitors of bcl-xL” (The Trustees of Columbia University in the City of New York, priority 1998, dated 2006).

Test system: bcl-xL transfected LNCaP cells
Assay: Drug treatment of bcl-xL transfected and parental LNCaP cells
Format: cell-based, human
Conditions: for apoptosis induction: parental LNCaP cells or neomycin-expressing control-transfected LNCaP cells; for concentration up to which bcl-xL overexpressing LNCaP clones were resistant: treatment for 24 h
Protocol: LNCaP cells transfected with the neomycin-selectable pSFFV/bcl-xL plasmid or with a control, neomycin-resistant expression vector pSFFV. Aliquots containing 10 μg of plasmid and 5 μg of lipofectin reagent (Life technologies, Inc., Gaithersburg, Md.) in serum-free OPTI-MEM (Life Technologies, Inc.) were added to cultured cells. The transfection media was replaced 4 h later with RPMI-10% FBS medium. Individual colonies were selected from these plates after approximately 3–4 weeks of routine maintenance in RPMI-10% FBS containing 0.6 mg/ml G418 sulfate (Geneticin, Life Technologies, Inc.). The bcl-xL-transformed LNCaP cells were cultured in RPMI-10% FBS, supplemented with 0.3 mg/ml G418 sulfate in 5% CO2 atmosphere.
Two clones of LNCaP cells overexpressing bcl-xL protein (1072-4 and 1072-5) have been obtained after transfection of wild type LNCaP cells with the plasmid vector pSFFV/bcl-xL and lipofectin. Also a mock transfectant clone of LNCaP cells carrying neo® resistance gene (1072-3) was used for the control experiments. […] Western blot analysis for bcl-xL protein was performed as described above. […] For the Northern blot analysis, the total RNA was isolated from the cells using TRIZOL reagent (GIBCO BRL), and 20 μg aliquotes were separated in RNA-formaldehyde gel, blotted onto nylon membranes (Schleicher & Schull), UV-linked and prehybridized for two hours at 42° C. in the standard hybridization solution. Then the blot was hybridized overnight with the PCR-amplified fragment of human bcl-xL cDNA at 42° C. Dcl-xL coding fragment was amplified from pSFFV/bcl-xL plasmid using bcl-x specific primers. The primer sequences were: bcl-x-upstream, 5′-[…]-3′ (SEQ ID NO:36); and bcl-x-downstream, 5′-[…]-3′ (SEQ ID NO:37). Twenty five cycles of amplification were performed in DNA Thermal Cycler (Perkin-Elmer, Norwalk, Conn.) at 94° C. (30 sec), 55° C. (30 sec), and 72° C. (30 sec). The PCR products were analysed on a 1.2% agarose gel. The resultant fragment was labeled by random primer method to the specific activity 10^7 cpm/ng of the probe and used for the hybridization. After washings blots were autoradiographed for 24h at −80° C. Blots were stripped of radioactivity and reprobed with a ^32P-labeled G3PDH probe to confirm the equal loading.
Clonal derivatives of bcl-xL transfected LNCaP cells that were overexpressing high amounts of bcl-xL protein were resistant to taxol (up to 100 nM) and mitoxantrone (up to 4 μM) treatment for 24 h. […] This finding strongly supports the hypothesis that bcl-xL gene product is a factor in the development of chemotherapy resistance in hormone-refractory prostate cancer.

Row | SMILES | apoptosis induction | concentration up to which bcl-xL overexpressing LNCaP clones were resistant
1 | O=C1c2c(O)ccc(O)c2C(=O)c2c(NCCNCCO)ccc(NCCNCCO)c21 [mitoxantrone] | induce apoptosis | up to 4 μM
2 | CC(=O)O[C@H]1C(=O)[C@@]2(C)[C@H]([C@H](OC(=O)c3ccccc3)[C@]3(O)C[C@H](OC(=O)[C@H](O)[C@@H](NC(=O)c4ccccc4)c4ccccc4)C(C)=C1C3(C)C)[C@]1(OC(C)=O)CO[C@@H]1C[C@@H]2O [taxol] | induce apoptosis | up to 100 nM
